{"source": "patent US8822413B2", "about": "“Bifunctional hormone having alpha-MSH activity and natriuretic peptide activity and uses thereof” (Theratechnologies Inc., priority 2007, dated 2014)", "key": {"ANP receptor": {"molecular_target": "T1, ANP receptor (Sus scrofa, UniProt F1SFW3)", "T1 construct": "ANP receptor-expressing LLC-PK1 cells; endogenous in cells; host or cells: LLC-PK1 cells", "T1 sequence (F1SFW3 29-1057)": "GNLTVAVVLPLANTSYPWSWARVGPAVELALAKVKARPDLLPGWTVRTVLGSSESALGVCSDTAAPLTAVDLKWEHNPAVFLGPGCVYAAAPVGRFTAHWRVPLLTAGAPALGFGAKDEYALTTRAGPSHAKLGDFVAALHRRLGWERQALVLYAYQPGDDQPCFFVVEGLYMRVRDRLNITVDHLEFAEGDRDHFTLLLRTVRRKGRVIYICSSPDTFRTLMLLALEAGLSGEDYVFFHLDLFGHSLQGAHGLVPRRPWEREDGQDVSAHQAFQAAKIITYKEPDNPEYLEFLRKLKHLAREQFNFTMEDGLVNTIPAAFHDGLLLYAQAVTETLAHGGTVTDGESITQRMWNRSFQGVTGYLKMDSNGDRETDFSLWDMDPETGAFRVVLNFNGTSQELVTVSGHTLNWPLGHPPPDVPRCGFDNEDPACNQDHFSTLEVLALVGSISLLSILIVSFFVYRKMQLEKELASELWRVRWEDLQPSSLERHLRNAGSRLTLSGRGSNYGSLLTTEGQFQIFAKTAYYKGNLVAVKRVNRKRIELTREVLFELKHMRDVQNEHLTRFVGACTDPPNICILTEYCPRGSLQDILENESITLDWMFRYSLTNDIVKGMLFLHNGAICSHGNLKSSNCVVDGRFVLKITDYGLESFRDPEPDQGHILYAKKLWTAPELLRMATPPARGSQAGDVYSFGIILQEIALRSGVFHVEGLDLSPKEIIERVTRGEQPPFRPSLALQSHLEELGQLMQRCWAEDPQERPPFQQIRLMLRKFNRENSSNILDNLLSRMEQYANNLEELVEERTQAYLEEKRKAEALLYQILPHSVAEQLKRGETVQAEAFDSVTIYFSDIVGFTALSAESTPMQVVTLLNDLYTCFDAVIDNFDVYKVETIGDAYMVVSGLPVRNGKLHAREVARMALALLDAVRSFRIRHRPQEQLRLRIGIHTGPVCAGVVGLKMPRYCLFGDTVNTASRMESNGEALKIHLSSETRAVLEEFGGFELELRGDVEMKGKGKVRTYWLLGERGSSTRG", "test": "cGMP production in ANP receptor-expressing LLC-PK1 cells", "type": "cell-based", "conditions": "30 min stimulation, 10^-6M through 10^-12M, NR = No response detected"}, "CD11b/c, KIM-1 and IL-1β": {"tested_on": "CD11b/c, KIM-1 and IL-1β", "test": "Western blot of inflammatory and tubular injury markers in kidneys after renal ischemia", "type": "in vivo, rat", "conditions": "15 μg/kg/h for 24 h, renal clamping 30 min, FIG. 6", "description": "Bifunctional hormone #33 was infused at an infusion rate of 15 μg/kg/h for 24 h using Alzet™ minipumps. The proteins were identified with specific antibodies. (A) Western blot. (B) Histograms showing the relative abundance of the markers.\nRenal ischemia elicits increased expression of inflammatory markers such as IL-1, IL-18, Tumor Necrosis Factor alpha (TNF-α) and CD11b (neutrophil marker; evidence of neutrophil infiltration of the tissue) as well as tubular epithelial markers such as KIM-1, NGAL and NAG. There is considerable interest in these markers since these markers are expressed earlier than the observed rise in serum creatinine levels. Therefore, diagnosis of acute kidney injury based on the markers allows for earlier treatment of the patients which may produce better outcomes in terms of dialysis need and mortality. The effect of the bifunctional hormone #33 on the expression of inflammatory and tubular injury markers was assessed using the animal model described in Example 5.\nPreparation of dosing solutions. Peptide #33 was infused for 24 h at an infusion rate of 15 μg/Kg/h using Alzet™ minipumps.\nWestern blotting. Fresh kidneys were rapidly dissected and homogenized with a tissue homogenizer in ice cold lysis buffer: 20 mM Tris, 135 mM NaCl, 1% NP-40™, 0.1% SDS, 10% glycerol containing Complete-Mini Protease Inhibitor Cocktail™ (Roche). Following a 15-min incubation on ice, samples were centrifuged at 13,000 rpm for 5 min at 4° C. and the supernatants containing solubilized protein extracts were collected. Protein samples (40 ug protein) were resolved on 10% SDS polyacrylamide gel electrophoresis and transferred to PVDF membranes (Amersham, Pharmacia). Non-specific binding was eliminated by incubating membranes for 1 h at room temperature in a solution of 5% non-fat milk in TBST (10 mM Tris, 150 mM NaCl, 0.2% Tween-20). […]"}}, "note": "Bridge positions count the residues as written; N and C are the ends. Square brackets hold non-standard residues; d marks the D form. Peptide text beside a SMILES is read from it."}
{"smiles": "CC[C@H](C)[C@@H]1NC(=O)[C@H](CCCNC(=N)N)NC(=O)[C@H](CC(=O)O)NC(=O)[C@H](CCSC)NC(=O)[C@H](CCCNC(=N)N)NC(=O)CNC(=O)CNC(=O)[C@H](Cc2ccccc2)NC(=O)[C@@H](NC(=O)[C@H](CCSC)NC(=O)[C@@H]2CCCN2C(=O)[C@H](CCCCN)NC(=O)CNC(=O)[C@H](Cc2c[nH]c3ccccc23)NC(=O)[C@H](CCCNC(=N)N)NC(=O)[C@@H](Cc2ccccc2)NC(=O)[C@H](Cc2c[nH]cn2)NC(C)=O)CSSC[C@@H](C(=O)N[C@@H](CC(N)=O)C(=O)N[C@@H](CO)C(=O)N[C@@H](Cc2ccccc2)C(=O)N[C@@H](CCCNC(=N)N)C(=O)N[C@@H](Cc2ccc(O)cc2)C(N)=O)NC(=O)CNC(=O)[C@H](CC(C)C)NC(=O)CNC(=O)[C@H](CO)NC(=O)[C@H](CCC(N)=O)NC(=O)[C@H](C)NC(=O)CNC1=O", "note": "[SEQ ID NO: 33, Ac-H-f-R-W-G-K-P-M-[C-F-G-G-R-M-D-R-I-G-A-Q-S-G-L-G-C]-N-S-F-R-Y-NH2] (Ac-H[dF]RWGKPMCFGGRMDRIGAQSGLGCNSFRY-NH2; disulfide 9-25)", "values": [{"measurement": "EC50", "setting": "ANP receptor", "value": 69, "unit": "nM"}, {"measurement": "expression of CD11b/c (neutrophil marker) in kidney", "setting": "CD11b/c, KIM-1 and IL-1β", "value": "reduced the expression"}, {"measurement": "expression of IL-1β (inflammatory cytokine) in kidney", "setting": "CD11b/c, KIM-1 and IL-1β", "value": "reduced the expression"}, {"measurement": "expression of KIM-1 (tubular injury marker) in kidney", "setting": "CD11b/c, KIM-1 and IL-1β", "value": "reduced the expression"}]}
